The text below walks through data of publication PMC8152814, “The modulatory role of sulfated and non-sulfated small molecule heparan sulfate-glycomimetics in endothelial dysfunction: absolute structural clarification, molecular docking and simulated dynamics, SAR analyses and ADMET studies” (RSC Medicinal Chemistry, 2021).

Structures are written as SMILES. Like-named read-outs stand apart in the source and are kept apart here.

A short description of series [1]: Turbidimetric kinetic aqueous solubility. The series is classed as physicochemical. The method, then: Physicochemical and ADMET properties of representative glycomimetics. […] The cells were incubated for 30 min in Hepes-buffered solution containing 10 μmol/L dihydroethidium (DHE), which intercalates with DNA in the presence of ROS and is detectable by fluorescence. Cells were counterstained with the nuclear stain DAPI at 0.3 μmol/L. In the following 24 h, the cell cultures were examined using a fluorescence microscope (Leica DMIRB). Sections were photographed and fluorescence was quantified using ImageJ. All parameters (pinhole, contrast, gain and offset) were held constant for all sections from the same experiment. ROS production was estimated from the ratio of ethidium/DAPI fluorescence.S6 Western blot analysis HepG2 wells were lysed in RIPA buffer containing proteinase inhibitors and the total protein was quantified using BCA protein assay kit (Pierce Biotechnology). Proteins (30 μg/well) were denatured and separated by sodium dodecyl sulfate (SDS)-polyacrylamide gel electrophoresis and transferred to polyvinylidene difluoride (PVDF) membranes. Blots were blocked for 1 h in 5% semi-skimmed milk/Tris-Buffered Saline Tween-20 (TBS-T), probed with primary rabbit anti-phospho-protein kinase B (Akt), rabbit anti-Akt (Santa Cruz Biotechnology), rabbit polyclonal anti-phospho-eNOS (Cell Signaling) overnight at 4 °C followed by washing and incubation with the corresponding horse radish peroxidase-labelled secondary antibody for 1 h at room temperature. After washing with TBS-T, membranes were incubated with ECL reagent and visualized (Amersham Pharmacia Biotech). Densitometry analysis using ImageJ© (version 1.32j, NIH) was used to quantify the protein signal.S7 Turbidimetric Aqueous Solubility Test compound (10 mM in DMSO) was serially diluted to give solutions of 0.1, 0.3, 1 and 3 mM in DMSO. Each test compound concentration was then further diluted 1 in 100 in buffer (typically 0.01 M phosphate buffered saline pH 7.4) so that the final DMSO concentration is 1 % and the final test compound concentrations are 1, 3, 10, 30 and 100 µM. The experiment is performed at 37 °C and each concentration is incubated in 7 replicate wells. The plates are incubated for 2 h at 37 °C before the absorbance is measured at 620nm. Nicardipine (pH dependent) and pyrene (pH independent) are included as control compounds. The solubility is estimated from the concentration of test compound that produces an increase in absorbance above vehicle control (1% DMSO in buffer). S11

In series [2] the test system is reactive oxygen species (ROS). The series can be described thus: ROS production in FFA-stressed cells. The following applies: averaged % of increase (+) or decrease (−) compared to control (FFA induced oxidatively stressed endothelial cells), n = 3. The series is classed as cell-based, human. The source says: The assays focused on the production of nitric oxide (NO) and the upregulation of nitric oxide synthase (eNOS), the production of reactive oxygen species (ROS) and the activity of nicotinamide adenine dinucleotide phosphate (NADPH) oxidase (Table 2). From the hypothesised model of heparan sulfate-glycomimetic activity,[17] the glycomimetics are proposed to attenuate the binding of HGF to the cMET receptor. This disruption to MET-receptor activation is proposed to modulate intracellular phosphorylation leading to an upregulation of eNOS and increased output of extracellular NO. […] Overall, the cross examination of NO output and reduction of ROS was used to determine the therapeutic action of the triaged glycomimetics α-4, R-10, S-10 and β-5, as well as 3 non-sulfated intermediates α-2, α-3 and β-3, on free fatty acid (FFA) induced, oxidatively stressed endothelial cell cultures (Table 2).
Biological assay and AMDET experimental details […]
Preparation of FFA-albumin complexes and cell treatments
To generate the in vitro model of oxidative stress, sodium palmitate was bound to bovine serum albumin (BSA) as outlined by Chavez and Summers,S2 with modifications. Sodium palmitate (FFA) was dissolved in EtOH at 60 °C and diluted 1:100 in M199 media supplemented with 2% fatty acid-free bovine serum albumin (BSA) and incubated for 1 h at 37 °C. HepG2 cells were treated with 1 μmol/L of the synthesized HS-glycomimetics in the presence of palmitate (100 μmol/L) for 3 h or pre-treated with glycomimetics for 12 h followed by 3 h palmitate (100 μmol/L). Control cells were incubated in serum free M199 containing 2% (wt/vol) fatty acid-free BSA.
NO release assay and Quantification of ROS production […]
The auto-fluorescence was subtracted from each value. Cells were incubated with 10 μmol/L of the fluorescent probe: 2′-7′-dichlorodihydrofluorescein diacetate (CM-H2DCFDA, Sigma) for 30 min at 37 °C, and the level of fluorescence was determined (excitation 490 nm; emission 540 nm) using a microplate reader (BioTek).
The level of NADPH-enhanced superoxide anions (O2•−) in HepG2 homogenates was determined by lucigenin-enhanced chemiluminescence.S4 Following the various treatment conditions, cells were homogenized in a buffer (20 mmol/L H2KPO4 and 1 mmol/L EDTA supplemented with aprotinin, leuprotinin, pepstatin and PMSF). The total protein quantified using the Bicinchoninic acid (BCA) assay (Pierce Biotechnology). To 50 μg of total protein, NADPH (100 μmol/L) was added in a total volume of 500 μL, with lucigenin (5 μmol/L) and was injected automatically. Activity was determined by measuring luminescence over 200 s in a scintillation counter (Lumat LB 9507, Berthold, Germany). Basal values of NADPH oxidase activity were subtracted from the experimental values and expressed as RLU/min/μg protein […]
In situ quantification of ROS species
Superoxide dismutase (SOD) and catalase (CAT) activity assays, and in situ detection of vascular ROS content. The activity of the enzymes, SOD and CAT, was determined in cell homogenates using assay kits according to the manufacturer's instructions (Cayman; Cat No 706002 and 707002 respectively). A unit of SOD was defined as the amount of enzyme […]
Similarly, a unit of CAT was […]
defined as the amount required to form 1.0 nmol of formaldehyde per min at 25 °C.S5 […]
HepG2 cells were incubated in serum-free DMEM containing 2% fatty acid-free BSA (control) or palmitate conjugated BSA (100 μmol/L) in the presence of HS-glycomimetics (1 or 10 μmol/L) for 24 h. The cells were incubated for 30 min in Hepes-buffered solution containing 10 μmol/L dihydroethidium (DHE), which intercalates with DNA in the presence of ROS and is detectable by fluorescence. Cells were counterstained with the nuclear stain DAPI at 0.3 μmol/L. In the following 24 h, the cell cultures were examined using a fluorescence microscope (Leica DMIRB). Sections were photographed and fluorescence was quantified using ImageJ. […]

Series [3] in a line: Microsomal metabolic stability, rat liver microsomes. The series is classed as in vitro ADME. The following applies: liver microsomes (pooled); for microsomal CLint at 3 µM / microsomal CLint at 0.75 h, 3 µM: pH 7.4; for half-life at 3 µM / half-life at 0.75 h, 3 µM: pH 7.4, 3 µM, 0.5 mg/mL protein, read-out: RLM t1/2. As to the method:
Microsomal Metabolic Stability […]
the reaction. The final incubation volume is 50 µL. A minus cofactor control incubation is […]
NADPH (minus NADPH). Two control compounds are included with each species. All incubations are performed singularly for each test compound. Each compound is incubated for 0, 5, 15, 30 and 45 min. The control (minus NADPH) is incubated for 45 min. The reactions […]
Elimination rate constant (k) = (- gradient)
Intrinsic clearance (CLint)(µL/min/mg protein) = where V = Incubation volume (µL)/Microsomal protein (mg) […]
specified limits (if available).
(Molecular Devices LLC), which simultaneously performs electrophysiology measurements for […]
All cell suspensions, buffers and […]

The mark [4] stands for this setting: phosphate buffered saline, turbidimetric assay, PBS pH 7.4, 37 °C, 2 h, read-out: Kinetic solubility.

`COC(=O)c1cc(OC[C@@H](COS(=O)(=O)[O-])OS(=O)(=O)[O-])ccc1OCC(COS(=O)(=O)[O-])OS(=O)(=O)[O-].[Na+].[Na+].[Na+].[Na+]` (mixture of isomers) [α-4, sodium 3-(4-((S)-2,3-bis(sulfonatooxy)propoxy)-2-(methoxycarbonyl)phenoxy)propane-1,2-diyl bis(sulfate)]: in series [1] (setting [4]), the solubility (kinetic) (as a rule, the concentration staying in solution when a stock, usually in DMSO, is diluted into the medium) at 2 h is greater than 100 µM. Further, the ROS production in series [2] is −28%. Also, in series [3], the microsomal CLint – broadly, the rate of metabolic loss divided by the concentration – at 3 µM was 9.56 µL/min/mg and the half-life at 3 µM was determined as 2.42 h.
For `O=C([O-])c1cc(OC[C@H](COS(=O)(=O)[O-])OS(=O)(=O)[O-])ccc1OCC(COS(=O)(=O)[O-])OS(=O)(=O)[O-].[Na+].[Na+].[Na+].[Na+].[Na+]` (mixture of isomers) [β-5, sodium 5-((R)-2,3-bis(sulfonatooxy)propoxy)-2-(2,3-bis(sulfonatooxy)propoxy)benzoate], the solubility (kinetic) at 2 h in series [1] (setting [4]) is greater than 100 µM. For the same molecule, the ROS production in series [2] was −29%. Besides, in series [3], the microsomal CLint at 3 µM is 0.649 µL/min/mg and the half-life at 3 µM worked out at 35.7 h.
For the molecule `COC(=O)c1cc(OC[C@H](COS(=O)(=O)[O-])OS(=O)(=O)[O-])ccc1OCCCCOS(=O)(=O)[O-].[Na+].[Na+].[Na+]` [Compound R-10, sodium (R)-3-(3-(methoxycarbonyl)-4-(4-(sulfonatooxy)butoxy)phenoxy)propane-1,2-diyl bis(sulfate)], the kinetic solubility at 2 h in series [1] (setting [4]) is greater than 100 µM. Besides, the ROS production in series [2] is −23%. In addition, in series [3], the intrinsic clearance (microsomal CLint) at 0.75 h, 3 µM was determined as 4.11 µL/min/mg and the half-life at 0.75 h, 3 µM is 5.63 h.
`COC(=O)c1cc(OC[C@@H](COS(=O)(=O)[O-])OS(=O)(=O)[O-])ccc1OCCCCOS(=O)(=O)[O-].[Na+].[Na+].[Na+]` [Compound S-10, sodium (S)-3-(3-(methoxycarbonyl)-4-(4-(sulfonatooxy)butoxy)phenoxy)propane-1,2-diyl bis(sulfate)]: in series [1] (pH 7.4), the solubility (kinetic) at 2 h is greater than 100 µM. Moreover, the ROS production in series [2] is recorded as −39%. In series [3], the microsomal CLint at 0.75 h, 3 µM amounted to 12.8 µL/min/mg and the half-life at 0.75 h, 3 µM turned out to be 1.82 h.
